Biological target: T1, NMDA receptor (3H-Ro 25-6981 binding site), rat brain membranes (Rattus norvegicus, UniProt P35439+Q00960)
T1 construct: Membranes were prepared by homogenization of the whole brain minus cerebellum and medulla oblongata; from tissue; host or cells: rat whole brain minus cerebellum and medulla oblongata, membrane preparation
Assay: 3H-Ro 25-6981 binding
Settings: not given
Experimental: 3H-Ro 25-6981 binding (Ro 25-6981 is [R—(R*,S*)]-a-(4-hydroxy-phenyl)-b-methyl-4-(phenyl-methyl)-1-piperidine propanol)
Male Füllinsdorf albino rats weighing between 150-200 g were used. Membranes were prepared by homogenization of the whole brain minus cerebellum and medulla oblongata with a Polytron (10,000 rpm, 30 seconds), in 25 volumes of a cold Tris-HCl 50 mM, EDTA 10 mM, pH 7.1 buffer. The homogenate was centrifuged at 48,000 g for 10 minutes at 4° C. The pellet was resuspended using the Polytron in the same volume of buffer and the homogenate was incubated at 37° C. for 10 minutes. After centrifugation the pellet was homogenized in the same buffer and frozen at −80° C. for at least 16 hours but not more than 10 days. For the binding assay the homogenate was thawed at 37° C., centrifuged and the pellet was washed three times as above in a Tris-HCl 5 mM, pH 7.4 cold buffer. The final pellet was resuspended in the same buffer and used at a final concentration of […].
3H-Ro 25-6981 binding experiments were performed using a Tris-HCl 50 mM, pH 7.4 buffer. For displacement experiments 5 nM of 3H-Ro 25-6981 were used and non-specific binding was measured using 10 mM of tetrahydroisoquinoline and usually it accounts for 10% of the total. The incubation time was 2 hours at 4° C. and the assay was stopped by filtration on Whatman GF/B glass fiber filters (Unifilter-96, Packard, Zürich, Switzerland). The filters were washed 5 times with cold buffer. The radioactivity on the filter was counted on a Packard Top-count microplate scintillation counter after addition of […] of microscint 40 (Canberra Packard S.A., Zürich, Switzerland).
The effects of compounds were measured using a minimum of 8 concentrations and repeated at least once. The pooled normalized values were analyzed using a non-linear regression calculation program which provide IC50 with their relative upper and lower 95% confidence limits (RS1, BBN, USA).

T1 sequence (Q00960 27-1482, other chains not shown): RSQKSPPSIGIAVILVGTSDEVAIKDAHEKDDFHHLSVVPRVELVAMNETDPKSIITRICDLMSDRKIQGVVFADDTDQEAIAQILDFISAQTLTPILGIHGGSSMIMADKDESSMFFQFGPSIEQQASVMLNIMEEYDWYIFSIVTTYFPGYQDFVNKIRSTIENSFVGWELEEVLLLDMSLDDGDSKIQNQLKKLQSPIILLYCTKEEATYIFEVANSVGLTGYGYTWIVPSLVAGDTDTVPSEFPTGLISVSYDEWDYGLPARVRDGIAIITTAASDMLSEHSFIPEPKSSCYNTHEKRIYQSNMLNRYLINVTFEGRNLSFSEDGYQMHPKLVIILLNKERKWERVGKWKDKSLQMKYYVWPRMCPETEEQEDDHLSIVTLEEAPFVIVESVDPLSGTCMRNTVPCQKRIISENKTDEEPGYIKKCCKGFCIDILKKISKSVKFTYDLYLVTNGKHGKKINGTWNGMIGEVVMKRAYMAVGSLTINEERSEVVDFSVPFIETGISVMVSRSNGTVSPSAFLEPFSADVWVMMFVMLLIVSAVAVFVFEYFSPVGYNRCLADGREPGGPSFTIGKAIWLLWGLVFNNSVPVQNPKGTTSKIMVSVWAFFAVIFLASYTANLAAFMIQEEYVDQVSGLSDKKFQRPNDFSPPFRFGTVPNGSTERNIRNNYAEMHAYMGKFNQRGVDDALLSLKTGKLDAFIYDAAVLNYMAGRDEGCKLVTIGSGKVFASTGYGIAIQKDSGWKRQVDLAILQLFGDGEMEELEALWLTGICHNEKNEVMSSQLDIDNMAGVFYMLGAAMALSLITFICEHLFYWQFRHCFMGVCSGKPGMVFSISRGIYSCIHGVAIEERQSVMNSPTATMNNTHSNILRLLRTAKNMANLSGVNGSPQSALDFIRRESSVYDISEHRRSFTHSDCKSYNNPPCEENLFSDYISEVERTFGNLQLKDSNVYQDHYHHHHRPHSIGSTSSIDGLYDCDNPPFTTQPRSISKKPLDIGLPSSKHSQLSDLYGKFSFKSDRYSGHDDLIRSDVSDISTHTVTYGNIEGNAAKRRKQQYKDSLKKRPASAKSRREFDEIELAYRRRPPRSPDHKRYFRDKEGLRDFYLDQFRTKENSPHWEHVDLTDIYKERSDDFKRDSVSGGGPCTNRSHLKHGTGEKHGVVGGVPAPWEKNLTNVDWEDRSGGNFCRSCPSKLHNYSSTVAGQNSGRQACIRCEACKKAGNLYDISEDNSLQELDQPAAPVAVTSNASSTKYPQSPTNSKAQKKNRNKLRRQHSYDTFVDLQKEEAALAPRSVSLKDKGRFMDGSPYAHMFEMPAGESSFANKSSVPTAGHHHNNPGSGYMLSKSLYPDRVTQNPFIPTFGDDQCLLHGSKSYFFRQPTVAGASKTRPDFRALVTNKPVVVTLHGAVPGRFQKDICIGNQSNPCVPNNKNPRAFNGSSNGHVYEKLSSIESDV

Structure (SMILES) | IC50
O=S(=O)(c1ccc(O)cc1)[C@H]1CCN(CC(F)CCc2ccccc2)C1 (mixture of isomers) [Example 35, (2R,3S) and (2S,3S)-4-[1-(2-Fluoro-4-phenyl-butyl)-pyrrolidine-3-sulfonyl]-phenol] | 29 nM
Oc1ccc(S[C@H]2CCN(CC(F)CCc3ccccc3)C2)cc1 (mixture of isomers) [Example 68, (2RS,3S)-4-[1-(2-Fluoro-4-phenyl-butyl)-pyrrolidin-3-ylsulfanyl]-phenol] | 77 nM

Same assay, conditions: displacement of 5 nM 3H-Ro 25-6981, rat whole brain minus cerebellum and medulla oblongata membranes, 2 hours at 4° C.; read-out: IC50

IC50 | Structure (SMILES)
40 nM | O=S(=O)(c1ccc(O)cc1)C1CCN(C2CC(Cc3ccccc3)C2)C1 (stereo not drawn) [Example 4, (3RS,cis) and (3RS,trans)-4-[1-(3-Benzyl-cyclobutyl)-pyrrolidine-3-sulfonyl]-phenol]
20 nM | Oc1ccc(S[C@@H]2CCN(CCCCc3ccccc3)C2)cc1 [Example 3, (R)-4-[1-(4-Phenyl-butyl)-pyrrolidin-3-yl-sulfanyl]-phenol]
31 nM | O=S(=O)(c1ccc(O)cc1)[C@H]1CCN(CC(O)C2Cc3ccccc3C2)C1 (mixture of isomers) [Example 43, (2R,3S) and (2S,3S)-4-[1-(2-Hydroxy-2-indan-2-yl-ethyl)-pyrrolidine-3-sulfonyl]-phenol]
60 nM | [O-][S@@+](c1ccc(O)cc1)[C@H]1CCN(C[C@@H](F)CCc2ccccc2)C1 [Example 62, (2S,3S,S-oxide R)-4-[1-(2-Fluoro-4-phenyl-butyl)-pyrrolidine-3-sulfinyl]-phenol]
9 nM | Oc1ccc(S[C@H]2CCN(CCCCc3ccccc3)C2)cc1 [Example 2, (S)-4-[1-(4-Phenyl-butyl)-pyrrolidin-3-yl-sulfanyl]-phenol]
80 nM | O=S(=O)(c1ccc(O)cc1)[C@@H]1CN(CCCCc2ccccc2)C[C@H]1O (racemic) [Example 16, (3RS,4RS)-4-(4-Hydroxy-benzenesulfonyl)-1-(4-phenyl-butyl)-pyrrolidin-3-ol]
59 nM | O=S(=O)(c1ccc(O)cc1)C1CCN([C@H]2CC[C@@H](c3ccccc3)CC2)C1 (relative stereo) [Example 6, (3RS,cis)-4-[1-(4-Phenyl-cyclohexyl)-pyrrolidine-3-sulfonyl]-phenol]

Test system: not given
Assay: not given
Settings: not given

melting point | Structure (SMILES)
121 to 124 °C | Cl.O=S(=O)(c1ccc(O)cc1)C1CCN(CCCCc2ccccc2)C1 (racemic)
